From patent US20110020843A1, “LABEL-FREE METHODS RELATED TO PHOSPHODIESTERASES” (priority 2009, published 2011)

Test system: quiescent A431 cells (endogenous PDE4 isoforms)
Experiment: Label-free Epic RWG biosensor DMR assay of PDE inhibitors in synchronized quiescent A431 cells
Format: cell-based, human
Settings: A431; 10 micromolar; ultra-high confluent cells, 2 hrs in low CO2 (~2%) (FIG. 12A)
Procedure: Cells were typically grown using ˜1 to 2×10^4 cells per well at passage 3 to 15 suspended in 50 μl of the corresponding culture medium in the biosensor microplate, and were cultured at 37° C. under air/5% CO2 for ˜1 day. Except for A431 which was subject to ˜20 hr starvation through continuously culture in the serum-free DMEM, the other cell types were directly assayed without starvation.
Epic® wavelength interrogation system (Corning Inc., Corning, N.Y.) was used for whole cell sensing. This system consists of a temperature-control unit, an optical detection unit, and an on-board liquid handling unit with robotics. The detection unit is centered on integrated fiber optics, and enables kinetic measures of cellular responses with a time interval of ˜15 sec. The compound solutions were introduced by using the on-board liquid handling unit (i.e., pippetting).
The RWG biosensor is capable of detecting minute changes in local index of refraction near the sensor surface. Since the local index of refraction within a cell is a function of density and its distribution of biomass (e.g., proteins, molecular complexes), the biosensor exploits its evanescent wave to non-invasively detect ligand-induced dynamic mass redistribution in native cells. The evanescent wave extends into the cells and exponentially decays over distance, leading to a characteristic sensing volume of ˜150 nm, implying that any optical response mediated through the receptor activation only represents an average over the portion of the cell that the evanescent wave is sampling. The aggregation of many cellular events downstream the receptor activation determines the kinetics and amplitudes of a ligand-induced DMR.
All studies were carried out at a controlled temperature (28° C.). At least two independent sets of experiments, each with at least three replicates, were performed.
We further examined the DMR signal, if any, of the quiescent A431 cells upon treatment with PDE inhibitors. […] The quiescent A431 cells obtained under the same culture condition were used. Here the initial seeding numbers of cells were relatively low (˜20K cells per well in a 384 well Epic biosensor microplate tissue culture treated). […] After washing with the serum free medium, the cells were continuously cultured in the serum free medium for another 24 hrs to reach a quiescent state. Here the quiescent state was largely achieved through serum withdrawl. […] The cell membrane bound carbonic anahydrase is a known sensor for CO2 level.
In FIG. 4 the quiescent cells were achieved primarily through serum withdrawl. We were interested in the quiescent cells achieved through both contact inhibition and serum withdrawl. To do so, much higher initial seeding numbers of cells (>=25k cells per well for the 384 well Epic biosensor microplate) were used. […] Here both quiescent cells were subject to the same synchronization condition (2 hr incubation in the HBSS assay solution in a low CO2 environment).
Here the quiescent A431 cells were used using 22k cells per well in 384 well Epic biosensor microplates, followed by one day (˜24 hrs) culture in serum medium and 1 day (˜24 hrs) serum free medium, and sequential synchronization in the HBSS buffer solution under a relatively low CO2 environment for 2 hrs. […] For comparison, the DMR signal of cells stimulated with the buffer only (“Vehicle”) were included.

## N#CC(C#N)=C(N)/C(C#N)=C/c1cc(O)c(O)c(O)c1 [tyrphostin 51]
  primary DMR profile: closely resembled the classic Gs-DMR signals
